Values quoted from earlier work in patent publication US20160338951A1 (Gavis Pharmaceuticals, priority 2015, published 2016).

Conditions: olopatadine by itself, water pH about 7.0, room temperature

soluble in water up to a concentration: about 0.18 w/v %
Structure (SMILES): CN(C)CC/C=C1/c2ccccc2COc2ccc(CC(=O)O)cc21 [olopatadine, 11-[(Z)-3(Dimethylamino)propylidene]-6-11dihydrodibenz [b,e] oxepin-2-acetic acid]
